According to patent publication US7572765B2, “Conformationally constrained parathyroid hormone (PTH) analogs” (The General Hospital Corporation, priority 2001, dated 2009):
“And” between values parts separate entries of the source, which are not always exact repeats. Identical values can stand only once. “Also recorded” adds a separate entry of the source. Like-named read-outs stand apart in the source and are kept apart here. Square brackets hold non-standard residues; d marks the D form. Peptide text beside a SMILES is read from it. hArg = N=C(N)NCCCC[C@H](N)C(=O)O; Aib = CC(C)(N)C(=O)O

Assays:
human P1R = target: T1, human P1R (Homo sapiens, UniProt Q03431); assay: cAMP stimulation in HKRK-B28 cells; assay type: cell-based; details: for cAMP EMax(obs.): basal 4.0 ± 0.1 pmole/well not subtracted
T1 construct: expressed in transfected cells; host or cells: HKRK-B28 (porcine kidney LLC-PK1, stably transfected)
T1 sequence (Q03431 27-593): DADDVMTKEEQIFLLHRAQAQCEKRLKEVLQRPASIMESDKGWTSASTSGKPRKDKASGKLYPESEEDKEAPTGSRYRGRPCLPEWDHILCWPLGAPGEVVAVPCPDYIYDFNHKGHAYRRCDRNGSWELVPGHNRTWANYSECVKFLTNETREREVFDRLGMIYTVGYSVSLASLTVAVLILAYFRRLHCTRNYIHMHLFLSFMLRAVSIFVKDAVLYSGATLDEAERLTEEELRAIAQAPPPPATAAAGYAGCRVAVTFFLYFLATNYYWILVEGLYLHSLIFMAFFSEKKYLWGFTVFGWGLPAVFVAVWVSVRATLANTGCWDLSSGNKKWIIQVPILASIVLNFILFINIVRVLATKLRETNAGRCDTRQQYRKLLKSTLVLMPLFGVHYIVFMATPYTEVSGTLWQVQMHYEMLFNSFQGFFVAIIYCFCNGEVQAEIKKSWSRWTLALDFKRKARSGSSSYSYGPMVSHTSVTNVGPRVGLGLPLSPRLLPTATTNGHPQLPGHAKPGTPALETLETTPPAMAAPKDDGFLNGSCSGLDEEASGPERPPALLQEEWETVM

[1] = system: embryonic mouse metatarsals; assay: Inhibition of chondrocyte differentiation in embryonic mouse metatarsals (explant assay); assay type: cell-based; details: for effect on mineralization / chondrocyte differentiation: E15.5 mouse metatarsals, 48 h treatment, PTH(1-34) 0.1 μM, [Aib^1,3,M]PTH(1-14) 1 μM, native PTH(1-14) 2 μM; for expression of the collagen X gene (mRNA in situ hybridization): explanted metatarsals, data not shown
Procedure: Inhibition of Chondrocyte Differentiation in Embryonic Mouse Metatarsals. Metatarsals from embryonic day (E) 15.5 mouse embryos were excised and cultured in a 37° C. humidified incubator (5% CO2) in serum -free αXMEM media in 24 well plates. Sixteen hours later, a PTH analog or vehicle was added, and the samples were incubated for an additional 48 h in 37° C. with peptide or vehicle added again at the 24 h time point. At the end of the 64 h incubation period, the samples were fixed with 10% formalin/phosphate-buffered saline, then directly visualized on a dissecting microscope using white light. Sections were processed for in-situ hybridization analysis using ^35S-labeled riboprobes specific for collagen type X mRNA, a developmental marker gene expressed only in hypertrophic chrondrocytes of the growth plate.
Whether or not [Aib^1,3,M]PTH(1-14) activity could be detected in a more intact bone system was studied in an explant assay. An explant assay utilized cartilaginous metatarsal rudiments isolated from E15.5mouse embryos and subsequently cultured in multi-well plates containing serum-free media. A PTH peptide analog or vehicle control, was added to the culture 16 h after explantion, then again at 24 h. The incubation was terminated 24 h later for a total of 48 h of treatment over a 64 h period. In the absence of PTH, chondrocyte differentation occurred, such that by the end of the experiment, dense mineralization was apparent at the bone's mid-section (FIG. 5A). […] These inhibitory effects were consistent with the known capacity of PTHRP to retard chondrocyte differentiation in the growth plate cartilage of developing long bones (Pellegrini, M., et al., Biochemistry 37:12737-12743 (1998)).

Molecule | EC50 (human P1R) | maximum (Emax) increase in intracellular cAMP (human P1R) | cAMP EMax(obs.) (human P1R) | effect on mineralization / chondrocyte differentiation [1] | expression of the collagen X gene (mRNA in situ hybridization) [1] | other results
CCCC[C@H](NC(=O)[C@H](CCCNC(=N)N)NC(=O)[C@H](CCC(=O)O)NC(=O)[C@@H](NC(=O)[C@H](CO)NC(=O)[C@H](C)NC(=O)[C@H](CC(C)C)NC(=O)[C@H](Cc1c[nH]cn1)NC(=O)[C@H](CCCCN)NC(=O)CNC(=O)[C@H](CC(C)C)NC(=O)[C@H](CC(N)=O)NC(=O)[C@H](Cc1c[nH]cn1)NC(=O)[C@H](CCCC)NC(=O)[C@H](CC(C)C)NC(=O)[C@H](CCC(N)=O)NC(=O)[C@@H](NC(=O)[C@H](CCC(=O)O)NC(=O)[C@H](CO)NC(=O)[C@@H](NC(=O)[C@H](C)N)C(C)C)[C@@H](C)CC)C(C)C)C(=O)N[C@@H](CCC(N)=O)C(=O)N[C@@H](Cc1c[nH]c2ccccc12)C(=O)N[C@@H](CC(C)C)C(=O)N[C@@H](CCCNC(=N)N)C(=O)N[C@@H](CCCCN)C(=O)N[C@@H](CCCCN)C(=O)N[C@@H](CC(C)C)C(=O)N[C@@H](CCC(N)=O)C(=O)N[C@@H](CC(=O)O)C(=O)N[C@H](C(=O)N[C@@H](Cc1c[nH]cn1)C(=O)N[C@@H](CC(N)=O)C(=O)N[C@@H](Cc1ccc(O)cc1)C(N)=O)C(C)C [PTH(1-34), [Nle^8,21, Tyr^34]PTH(1-34)amide, reference compound] | 2.5 ± 0.4 nM | ~70 fold | 280 ± 11 pmole/well | no mineralization was observed; also recorded: inhibited mineralization | inhibited expression of the collagen X gene | –
CC[C@H](C)[C@H](NC(=O)[C@H](CCC(=O)O)NC(=O)C(C)(C)NC(=O)[C@@H](NC(=O)C(C)(C)N)C(C)C)C(=O)N[C@@H](CCC(N)=O)C(=O)N[C@@H](CC(C)C)C(=O)N[C@@H](CCSC)C(=O)N[C@@H](Cc1c[nH]cn1)C(=O)N[C@@H](CCC(N)=O)C(N)=O [[Aib^1,3,M]PTH(1-10), [Aib^1,3,Gln^10]PTH(1-10)] (H-[Aib]V[Aib]EIQLMHQ-NH2) | 16000 ± 2000 nM | – | 111 ± 8 pmole/well | – | – | cAMP potency, fold more potent than [Ala^3,Gln^10]PTH(1-10) (human P1R): 50 fold; cAMP potency, fold weaker relative to [Aib^1,3,M]PTH(1-11) (human P1R): 4000 fold
CC[C@H](C)[C@H](NC(=O)[C@H](CCC(=O)O)NC(=O)C(C)(C)NC(=O)[C@@H](NC(=O)C(C)(C)N)C(C)C)C(=O)N[C@@H](CCC(N)=O)C(=O)N[C@@H](CC(C)C)C(=O)N[C@@H](CCSC)C(=O)N[C@@H](Cc1c[nH]cn1)C(=O)N[C@@H](CCC(N)=O)C(=O)N[C@@H](CCCCNC(=N)N)C(N)=O [[Aib^1,3,M]PTH(1-11), AibValAibGluIleGlnLeuMetHisGlnHar] (H-[Aib]V[Aib]EIQLMHQ[hArg]-NH2) | 4 nM and ~6 nM | – | 243 ± 15 pmole/well | – | – | cAMP potency, fold greater than that of [M]PTH(1-11) (human P1R): 1,000 fold; cAMP potency, fold greater than that of [M]PTH(1-11) (human P1R; listed as [Aib^1,3,Gln^10,Har^11]PTH(1-11)): 1000 fold
CC[C@H](C)[C@H](NC(=O)[C@H](CCC(=O)O)NC(=O)C(C)(C)NC(=O)[C@@H](NC(=O)C(C)(C)N)C(C)C)C(=O)N[C@@H](CCC(N)=O)C(=O)N[C@@H](CC(C)C)C(=O)N[C@@H](CCSC)C(=O)N[C@@H](Cc1c[nH]cn1)C(=O)N[C@@H](CCC(N)=O)C(=O)N[C@@H](CCCCNC(=N)N)C(=O)N[C@@H](C)C(=O)N[C@@H](CCCCN)C(=O)N[C@@H](Cc1c[nH]c2ccccc12)C(N)=O [[Aib^1,3,M]PTH(1-14), AibValAibGluIleGlnLeuMetHisGlnHarAlaLysTrp] (H-[Aib]V[Aib]EIQLMHQ[hArg]AKW-NH2) | 1.1 nM and ~1 nM | – | 278 ± 20 pmole/well | no mineralization was observed; also recorded: inhibited mineralization | inhibited expression of the collagen X gene | fold more potent in stimulating cAMP formation than [M]PTH(1-14) (human P1R): 90 fold and 100 fold
CC[C@H](C)[C@H](NC(=O)[C@H](CCC(=O)O)NC(=O)[C@H](C)NC(=O)[C@@H](NC(=O)[C@H](C)N)C(C)C)C(=O)N[C@@H](CCC(N)=O)C(=O)N[C@@H](CC(C)C)C(=O)N[C@@H](CCSC)C(=O)N[C@@H](Cc1c[nH]cn1)C(=O)N[C@@H](CCC(N)=O)C(=O)N[C@@H](CCCCNC(=N)N)C(=O)N[C@@H](C)C(=O)N[C@@H](CCCCN)C(=O)N[C@@H](Cc1c[nH]c2ccccc12)C(N)=O [[M]PTH(1-14), [Ala^3,12,Gln^10,Har^11,Trp^14]PTH(1-14)amide, reference compound] (H-AVAEIQLMHQ[hArg]AKW-NH2) | – | ~70 fold | 270 ± 8 pmole/well | – | – | cAMP potency (EC50), fold less than that of PTH(1-34) (human P1R): 40 fold
H-AVSEIQLMHNLGKH-NH2 [PTH(1-14), reference compound] | – | – | – | no effect could be detected; also recorded: mineralization can be detected | – | –
